Question: For `NNC(=O)c1ccccc1`, which solubility (mole fraction) (in ethanol, 283.15 K) is on record?
Answer: 0.0137

Question: What about the solubility (mole fraction) (in ethanol, 288.15 K) of the same compound?
Answer: 0.0169

Question: And the solubility (mole fraction) (in ethanol, 293.15 K)?
Answer: 0.0203

Question: And the solubility (mole fraction) (in ethanol, 298.15 K)?
Answer: 0.0283

Question: And the solubility (mole fraction) (in ethanol, 303.15 K)?
Answer: 0.0376

Question: What about the solubility (mole fraction) (in ethanol, 308.15 K) of the same compound?
Answer: 0.0481

Question: What about the solubility (mole fraction) (in ethanol, 313.15 K) of the same compound?
Answer: 0.0605

Question: And the solubility (mole fraction) (in ethanol, 318.15 K)?
Answer: 0.0805

Question: What about the solubility (mole fraction) (in ethanol, 323.15 K) of the same compound?
Answer: 0.101

Question: And the solubility (mole fraction) (in isopropanol, 283.15 K)?
Answer: 0.0112

Question: What about the solubility (mole fraction) (in isopropanol, 288.15 K) of the same compound?
Answer: 0.0135

Question: What about the solubility (mole fraction) (in isopropanol, 293.15 K) of the same compound?
Answer: 0.0173

Question: And the solubility (mole fraction) (in isopropanol, 298.15 K)?
Answer: 0.0231

Question: And the solubility (mole fraction) (in isopropanol, 303.15 K)?
Answer: 0.0299

Question: And the solubility (mole fraction) (in isopropanol, 308.15 K)?
Answer: 0.0384

Question: What about the solubility (mole fraction) (in isopropanol, 313.15 K) of the same compound?
Answer: 0.0489

Question: What about the solubility (mole fraction) (in isopropanol, 318.15 K) of the same compound?
Answer: 0.0623

Question: And the solubility (mole fraction) (in isopropanol, 323.15 K)?
Answer: 0.0761

Question: And the solubility (mole fraction) (in methanol, 283.15 K)?
Answer: 0.0363

Question: What about the solubility (mole fraction) (in methanol, 288.15 K) of the same compound?
Answer: 0.0425

Question: And the solubility (mole fraction) (in methanol, 293.15 K)?
Answer: 0.0515

Question: And the solubility (mole fraction) (in methanol, 298.15 K)?
Answer: 0.0605

Question: And the solubility (mole fraction) (in methanol, 303.15 K)?
Answer: 0.0727

Question: What about the solubility (mole fraction) (in methanol, 308.15 K) of the same compound?
Answer: 0.0843

Question: And the solubility (mole fraction) (in methanol, 313.15 K)?
Answer: 0.103

Question: And the solubility (mole fraction) (in methanol, 318.15 K)?
Answer: 0.118

Question: And the solubility (mole fraction) (in methanol, 323.15 K)?
Answer: 0.137

Question: And the solubility (mole fraction) (in n-butanol, 283.15 K)?
Answer: 0.0087

Question: What about the solubility (mole fraction) (in n-butanol, 288.15 K) of the same compound?
Answer: 0.0107

Question: What about the solubility (mole fraction) (in n-butanol, 293.15 K) of the same compound?
Answer: 0.0132

Question: What about the solubility (mole fraction) (in n-butanol, 298.15 K) of the same compound?
Answer: 0.0185

Question: What about the solubility (mole fraction) (in n-butanol, 303.15 K) of the same compound?
Answer: 0.0244

Question: What about the solubility (mole fraction) (in n-butanol, 308.15 K) of the same compound?
Answer: 0.0321

Question: And the solubility (mole fraction) (in n-butanol, 313.15 K)?
Answer: 0.041

Question: What about the solubility (mole fraction) (in n-butanol, 318.15 K) of the same compound?
Answer: 0.0519

Question: What about the solubility (mole fraction) (in n-butanol, 323.15 K) of the same compound?
Answer: 0.0665

Question: And the solubility (mole fraction) (in n-propanol, 283.15 K)?
Answer: 0.0129

Question: What about the solubility (mole fraction) (in n-propanol, 288.15 K) of the same compound?
Answer: 0.0155

Question: What about the solubility (mole fraction) (in n-propanol, 293.15 K) of the same compound?
Answer: 0.019

Question: What about the solubility (mole fraction) (in n-propanol, 298.15 K) of the same compound?
Answer: 0.026

Question: And the solubility (mole fraction) (in n-propanol, 303.15 K)?
Answer: 0.0319

Question: What about the solubility (mole fraction) (in n-propanol, 308.15 K) of the same compound?
Answer: 0.0421

Question: And the solubility (mole fraction) (in n-propanol, 313.15 K)?
Answer: 0.0536

Question: What about the solubility (mole fraction) (in n-propanol, 318.15 K) of the same compound?
Answer: 0.068

Question: What about the solubility (mole fraction) (in n-propanol, 323.15 K) of the same compound?
Answer: 0.0834

Question: What about the solubility (mole fraction) (in water, 283.15 K) of the same compound?
Answer: 0.00505

Question: What about the solubility (mole fraction) (in water, 288.15 K) of the same compound?
Answer: 0.00662

Question: What about the solubility (mole fraction) (in water, 293.15 K) of the same compound?
Answer: 0.00868

Question: And the solubility (mole fraction) (in water, 298.15 K)?
Answer: 0.0116

Question: And the solubility (mole fraction) (in water, 303.15 K)?
Answer: 0.0154

Question: And the solubility (mole fraction) (in water, 308.15 K)?
Answer: 0.0203

Question: And the solubility (mole fraction) (in water, 313.15 K)?
Answer: 0.0267

Question: And the solubility (mole fraction) (in water, 318.15 K)?
Answer: 0.0348

Question: And the solubility (mole fraction) (in water, 323.15 K)?
Answer: 0.0453

Question: Which results are given for `NNC(=O)c1ccccc1O`?
Answer: solubility (mole fraction) (in ethanol, 283.15 K): 0.0095; solubility (mole fraction) (in ethanol, 288.15 K): 0.0115; solubility (mole fraction) (in ethanol, 293.15 K): 0.0132; solubility (mole fraction) (in ethanol, 298.15 K): 0.0161; solubility (mole fraction) (in ethanol, 303.15 K): 0.0189; solubility (mole fraction) (in ethanol, 308.15 K): 0.0224; solubility (mole fraction) (in ethanol, 313.15 K): 0.0278; solubility (mole fraction) (in ethanol, 318.15 K): 0.0316; solubility (mole fraction) (in ethanol, 323.15 K): 0.0379; solubility (mole fraction) (in isopropanol, 283.15 K): 0.00719; solubility (mole fraction) (in isopropanol, 288.15 K): 0.00841; solubility (mole fraction) (in isopropanol, 293.15 K): 0.0102; solubility (mole fraction) (in isopropanol, 298.15 K): 0.0124; solubility (mole fraction) (in isopropanol, 303.15 K): 0.015; solubility (mole fraction) (in isopropanol, 308.15 K): 0.0181; solubility (mole fraction) (in isopropanol, 313.15 K): 0.0219; solubility (mole fraction) (in isopropanol, 318.15 K): 0.0261; solubility (mole fraction) (in isopropanol, 323.15 K): 0.0316; solubility (mole fraction) (in methanol, 283.15 K): 0.0122; solubility (mole fraction) (in methanol, 288.15 K): 0.015; solubility (mole fraction) (in methanol, 293.15 K): 0.017; solubility (mole fraction) (in methanol, 298.15 K): 0.0198; solubility (mole fraction) (in methanol, 303.15 K): 0.0243; solubility (mole fraction) (in methanol, 308.15 K): 0.0278; solubility (mole fraction) (in methanol, 313.15 K): 0.0326; solubility (mole fraction) (in methanol, 318.15 K): 0.0382; solubility (mole fraction) (in methanol, 323.15 K): 0.0462; solubility (mole fraction) (in n-butanol, 283.15 K): 0.00861; solubility (mole fraction) (in n-butanol, 288.15 K): 0.00985; solubility (mole fraction) (in n-butanol, 293.15 K): 0.0115; solubility (mole fraction) (in n-butanol, 298.15 K): 0.013; solubility (mole fraction) (in n-butanol, 303.15 K): 0.0148; solubility (mole fraction) (in n-butanol, 308.15 K): 0.0165; solubility (mole fraction) (in n-butanol, 313.15 K): 0.0188; solubility (mole fraction) (in n-butanol, 318.15 K): 0.0216; solubility (mole fraction) (in n-butanol, 323.15 K): 0.025; solubility (mole fraction) (in n-propanol, 283.15 K): 0.00748; solubility (mole fraction) (in n-propanol, 288.15 K): 0.0097; solubility (mole fraction) (in n-propanol, 293.15 K): 0.0112; solubility (mole fraction) (in n-propanol, 298.15 K): 0.0138; solubility (mole fraction) (in n-propanol, 303.15 K): 0.016; solubility (mole fraction) (in n-propanol, 308.15 K): 0.0189; solubility (mole fraction) (in n-propanol, 313.15 K): 0.024; solubility (mole fraction) (in n-propanol, 318.15 K): 0.0283; solubility (mole fraction) (in n-propanol, 323.15 K): 0.0334; solubility (mole fraction) (in water, 283.15 K): 0.0122; solubility (mole fraction) (in water, 288.15 K): 0.0146; solubility (mole fraction) (in water, 293.15 K): 0.0182; solubility (mole fraction) (in water, 298.15 K): 0.0223; solubility (mole fraction) (in water, 303.15 K): 0.028; solubility (mole fraction) (in water, 308.15 K): 0.0355; solubility (mole fraction) (in water, 313.15 K): 0.0435; solubility (mole fraction) (in water, 318.15 K): 0.0541; solubility (mole fraction) (in water, 323.15 K): 0.0665

From BigSolDB 2.1
